Reference: US20110045101A1, “FUNGICIDAL SUBSTITUTED AZOLES” (E.I. Du Pont De Nemours and Company, priority 2009, published 2011)
Marks after values point to notes of the source that are not given here.

Legend:
Assay type in all cases: in vivo
Settings in all cases: 100 = 100% disease control
Alternaria solani = assay: Test D: tomato early blight, sprayed the day before inoculation, visual disease rating
Procedure, shortened: (§1)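 Ratings reflect a 200 ppm spray (≈500 g/ha) unless marked as 40 ppm. Plants were sprayed to run-off. The spray suspension was acetone/purified water 50/50 containing 250 ppm Trem 014, after first dissolving compound in acetone at 3% of final volume.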

Botrytis cinerea = assay: Test C: tomato Botrytis on tomato seedlings, sprayed the day before inoculation, visual disease rating
Procedure, shortened: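 Disease scored by eye on tomato seedlings inoculated with Botrytis cinerea a day after treatment. Treatment was a run-off spray at 200 ppm (equivalent to 500 g/ha), or 40 ppm where marked, in acetone/water carrying 250 ppm Trem 014.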

[1] = tested on: Puccinia recondita f. sp. tritici; assay: Test H: wheat leaf rust, test suspension sprayed after inoculation of wheat seedlings, visual disease rating
Procedure, shortened: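 Wheat seedlings inoculated with P. recondita spores, held 24 h saturated at 20 °C, then 2 days in growth chamber at 20 °C; compound suspension (acetone/water with Trem 014) sprayed to run-off afterwards. Rated visually; 200 ppm (≈500 g/ha) unless marked *, which denotes 40 ppm.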

[2] = tested on: Erysiphe graminis f. sp. tritici; assay: Test J: wheat powdery mildew on wheat seedlings, sprayed the day before inoculation, visual disease rating
Procedure, shortened: as §1

Septoria tritici = assay: Test G: wheat leaf blotch on wheat seedlings, sprayed the day before inoculation, visual disease rating
Procedure, shortened: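 Compounds dissolved in acetone (3% of final volume), then suspended in 50/50 acetone/water with 250 ppm Trem® 014 and sprayed to run-off on seedlings at 200 ppm (≈500 g/ha) or 40 ppm where marked. Inoculation with spores followed next day; visual rating after 48 h saturated at 24° C plus 19 days at 20° C.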

Septoria nodorum = assay: Test F: wheat glume blotch on wheat seedlings, sprayed the day before inoculation, visual disease rating
Procedure, shortened: as §1

[3] = tested on: Puccinia recondita f. sp. tritici; assay: Test I: wheat leaf rust on wheat seedlings, sprayed the day before inoculation, visual disease rating
Procedure, shortened: as §1

[4] = 200 ppm, 0 = no control relative to controls

| Structure (SMILES) | Test D disease control rating (Alternaria solani; [4]) | Test C disease control rating (Botrytis cinerea; [4]) | Test H disease control rating [1, 4] | Test J disease control rating [2, 4] | Test G disease control rating (Septoria tritici; [4]) | Test F disease control rating (Septoria nodorum; [4]) | Test I disease control rating [3, 4] | also measured |
| --- | --- | --- | --- | --- | --- | --- | --- | --- |
| N#Cc1ccc(F)c(-c2c(Cl)ncn2-c2ccc(F)cc2)c1F [compound 656] | 100% | 100% | 9% | 100% | 99% | 20% | 100% | – |
| COc1cc(F)c(-c2c(Cl)ncn2-c2cccc(OC(F)(F)F)c2)c(F)c1 [compound 558] | 0% | 100% | 15% | 100% | 94% | 0% | 99% | – |
| COc1ccc(F)c(-c2c(Br)nc(Br)n2-c2ccc(F)cc2)c1F [Compound 504, 2,4-dibromo-5-(2,6-difluoro-3-methoxyphenyl)-1-(4-fluorophenyl)-1H-imidazole] | – | – | – | – | – | – | – | pest or weed control at 200 ppm (Alternaria solani; Alternaria solani, 168 h, 200 ppm, 0 = no control relative to controls): 100%; pest or weed control at 200 ppm (Botrytis cinerea; Botrytis cinerea, 120 h, 200 ppm, 0 = no control relative to controls): 99%; pest or weed control at 200 ppm ([1]; Puccinia recondita, 96 h, 200 ppm, 0 = no control relative to controls): 0%; pest or weed control at 200 ppm ([2]; Blumeria graminis, 168 h, 200 ppm, 0 = no control relative to controls): 100%; pest or weed control at 200 ppm (Septoria tritici; Zymoseptoria tritici, 504 h, 200 ppm, 0 = no control relative to controls): 97%; pest or weed control at 200 ppm (Septoria nodorum; Parastagonospora nodorum, 264 h, 200 ppm, 0 = no control relative to controls): 100%; pest or weed control at 200 ppm ([3]; Puccinia recondita, 168 h, 200 ppm, 0 = no control relative to controls): 99% |
| Cc1nc(Cl)c(-c2c(F)cccc2F)n1-c1ccc(Cl)nc1 [compound 666] | 100% | 100% | 100% | 100% | 99% | 99% | 100% | – |
| COc1cc(F)c(-c2c(N(C)C)ncn2Cc2ccc(Cl)cc2)c(F)c1 [compound 269] | – | – | – | – | – | – | – | Test D disease control rating (Alternaria solani; 200 ppm, 0 = no control): 0%; Test C disease control rating (Botrytis cinerea; 200 ppm, 0 = no control): 100%; Test H disease control rating ([1]; 200 ppm, 0 = no control): 9%; Test J disease control rating ([2]; 200 ppm, 0 = no control): 0%; Test G disease control rating (Septoria tritici; 200 ppm, 0 = no control): 83%; Test F disease control rating (Septoria nodorum; 200 ppm, 0 = no control): 87%; Test I disease control rating ([3]; 200 ppm, 0 = no control): 9% |
| COc1cc(F)c(-c2c(Cl)nc(Cl)n2Cc2ccc(Cl)nc2)c(F)c1 [compound 667] | 100% | 100% | 8% | 76% | 99% | 100% | 97% | – |
| COc1cc(F)c(-c2c(Cl)nc(Cl)n2-c2ccc(C)cc2F)c(F)c1 [compound 653] | – | – | – | – | – | – | – | Test D disease control rating (Alternaria solani; 40 ppm (marked *)): 99* %; Test C disease control rating (Botrytis cinerea; 40 ppm (marked *)): 99* %; Test H disease control rating ([1]; 40 ppm (marked *)): 99* %; Test J disease control rating ([2]; 40 ppm (marked *)): 99* %; Test G disease control rating (Septoria tritici; 40 ppm (marked *)): 100* %; Test F disease control rating (Septoria nodorum; 40 ppm (marked *)): 78* %; Test I disease control rating ([3]; 40 ppm (marked *)): 100* % |
| Cc1nc(Cl)c(-c2c(F)ccc(F)c2F)n1-c1ccc(Cl)c(Cl)c1 [compound 480] | 100% | 100% | 0% | 100% | 96% | 95% | 99% | – |
| Cc1nc(Cl)n(-c2c(F)cccc2F)c1-c1ccc(Cl)cc1 [compound 466] | – | – | – | – | – | – | – | Test D disease control rating (Alternaria solani; 40 ppm (marked *)): 100* %; Test C disease control rating (Botrytis cinerea; 40 ppm (marked *)): 99* %; Test H disease control rating ([1]; 40 ppm (marked *)): 0* %; Test J disease control rating ([2]; 40 ppm (marked *)): 100* %; Test G disease control rating (Septoria tritici; 40 ppm (marked *)): 82* %; Test F disease control rating (Septoria nodorum; 40 ppm (marked *)): 0* %; Test I disease control rating ([3]; 40 ppm (marked *)): 93* % |
| COc1ccc(F)c(-c2c(Cl)nc(Br)n2-c2ccc(Br)cc2)c1F [compound 563] | 100% | 100% | 0% | 100% | 100% | 100% | 94% | – |
| CCOc1cc(F)c(-c2c(Cl)ncn2-c2ccc(C)cc2)c(F)c1 [compound 723] | 99% | 100% | 66% | 95% | 97% | 0% | 68% | – |
| COc1cc(F)c(-c2c(Cl)nc(Br)n2-c2cccc(OC(F)F)c2)c(F)c1 [compound 545] | 100% | 100% | 27% | 99% | 99% | 98% | 100% | – |
| Cc1ccc(-n2c(Cl)nc(Cl)c2-c2c(F)ccc(C#N)c2F)cc1 [compound 680] | 100% | 99% | 0% | 100% | 100% | 98% | 100% | – |
| COc1cc(F)c(-c2c(Cl)ncn2-c2ccc(OC(F)(F)F)cc2)c(F)c1 [compound 559] | 41% | 94% | 29% | 98% | 95% | 0% | 88% | – |
| Cc1nc(Br)c(Cc2c(F)cc(F)cc2F)n1-c1ccc(Cl)cc1 [compound 532] | 0% | 97% | 0% | 91% | 99% | 0% | 99% | – |
| COc1cc(F)c(-c2c(Cl)nc(Br)n2-c2ccc(F)c(F)c2)c(F)c1 [compound 484] | 100% | 100% | 28% | 100% | 95% | 89% | 100% | – |
| COc1ccc(F)c(-c2c(Cl)nc(C)n2-c2ccc(C)c(F)c2)c1F [compound 590] | – | – | – | – | – | – | – | Test D disease control rating (Alternaria solani; 40 ppm (marked *)): 100* %; Test C disease control rating (Botrytis cinerea; 40 ppm (marked *)): 100* %; Test H disease control rating ([1]; 40 ppm (marked *)): 7* %; Test J disease control rating ([2]; 40 ppm (marked *)): 100* %; Test G disease control rating (Septoria tritici; 40 ppm (marked *)): 96* %; Test F disease control rating (Septoria nodorum; 40 ppm (marked *)): 94* %; Test I disease control rating ([3]; 40 ppm (marked *)): 100* % |
| CCOc1ccc(F)c(-c2c(Cl)ncn2-c2ccc(Cl)cc2)c1F [compound 660] | 98% | 100% | 9% | 100% | 100% | 82% | 92% | – |
| COc1cc(F)c(-c2c(Cl)nc(Cl)n2-c2ccc(OC)c(Cl)c2)c(F)c1 [compound 646] | – | – | – | – | – | – | – | Test D disease control rating (Alternaria solani; 40 ppm (marked *)): 47* %; Test C disease control rating (Botrytis cinerea; 40 ppm (marked *)): 93* %; Test H disease control rating ([1]; 40 ppm (marked *)): 0* %; Test J disease control rating ([2]; 40 ppm (marked *)): 35* %; Test G disease control rating (Septoria tritici; 40 ppm (marked *)): 97* %; Test F disease control rating (Septoria nodorum; 40 ppm (marked *)): 0* %; Test I disease control rating ([3]; 40 ppm (marked *)): 92* % |
| COc1ccc(-n2c(Cl)nc(Cl)c2-c2c(F)cccc2F)c(Cl)n1 [compound 620] | 99% | 100% | 100% | 99% | 98% | 90% | 100% | – |
